Laboratory results as given in patent publication US7888386B2, “3-(phenoxyphenylmethyl)pyrrolidine compounds” (Theravance, Inc., priority 2008, dated 2011).
Read-outs that look alike come from different tables or passages of the source.

Assays:
hSERT = molecular target: T1, hSERT (Homo sapiens, UniProt P31645); assay: hSERT binding assay (Assay 1)
T1 construct: expressed in transfected cells; host or cells: HEK-293 derived cell line, stably transfected; membrane preparation
Description: (§1) Membrane radioligand binding assays were used to measure competitive inhibition of labeled ligand (^3H-citalopram or ^3H-nisoxetine or ^3H-WIN35428) binding to membranes prepared from cells expressing the respective human recombinant transporter (hSERT or hNET or hDAT) in order to determine the pKi values of test compounds at the transporters.
(§2) Recombinant human embryonic kidney (HEK-293) derived cell lines stably transfected with hSERT or hNET, respectively, were grown in DMEM medium supplemented with 10% dialyzed FBS (for hSERT) or FBS (for hNET), 100 μg/ml penicillin, 100 μg/ml streptomycin, 2 mM L-glutamine and 250 μg/ml of the aminoglycoside antibiotic G418, in a 5% CO2 humidified incubator at 37° C. When cultures reached 80% confluence, the cells were washed thoroughly in PBS (without Ca^2+ and Mg^2+) and lifted with 5 mM EDTA in PBS. Cells were pelleted by centrifugation, resuspended in lysis buffer (10 mM Tris-HCl, pH 7.5 containing 1 mM EDTA), homogenized, pelleted by centrifugation, then resuspended in 50 mM Tris-HCl, pH 7.5 and 10% sucrose at 4° C. Protein concentration of the membrane suspension was determined using a Bio-Rad Bradford Protein Assay kit. Membranes were snap frozen and stored at −80° C. Chinese hamster ovary membranes expressing hDAT (CHO-DAT) were purchased from PerkinElmer and stored at −80° C.
(§3) Stock solutions (10 mM in DMSO) of test compound were prepared and serial dilutions made using Dilution Buffer (50 mM Tris-HCl, 120 mM NaCl, 5 mM KCl, pH 7.4, 0.1% BSA, 400 μM ascorbic acid).
(§4) Following a 60 minute incubation at 22° C. (or a period sufficient to reach equilibrium), the membranes were harvested by rapid filtration over a 96-well UniFilter GF/B plate, pretreated with 0.3% polyethyleneimine, and washed 6 times with 300 μl wash buffer (50 mM Tris-HCl, 0.9% NaCl, pH 7.5 at 4° C.). Plates were dried overnight at room temperature, ˜45 μl of MicroScint™-20 (Perkin Elmer) added and bound radioactivity quantitated via liquid scintillation spectroscopy. Competitive inhibition curves and saturation isotherms were analyzed using GraphPad Prism Software package (GraphPad Software, Inc., San Diego, Calif.). IC50 values were generated from concentration response curves using the Sigmoidal Dose Response (variable slope) algorithm in Prism GraphPad.

hNET = molecular target: T2, hNET (Homo sapiens, UniProt P23975); assay: hNET binding assay (Assay 1); details: hNET binding, read-out: NET pKi (converted)
T2 construct: expressed in transfected cells; host or cells: HEK-293 derived cell line, stably transfected; membrane preparation
T2 sequence (P23975 whole entry): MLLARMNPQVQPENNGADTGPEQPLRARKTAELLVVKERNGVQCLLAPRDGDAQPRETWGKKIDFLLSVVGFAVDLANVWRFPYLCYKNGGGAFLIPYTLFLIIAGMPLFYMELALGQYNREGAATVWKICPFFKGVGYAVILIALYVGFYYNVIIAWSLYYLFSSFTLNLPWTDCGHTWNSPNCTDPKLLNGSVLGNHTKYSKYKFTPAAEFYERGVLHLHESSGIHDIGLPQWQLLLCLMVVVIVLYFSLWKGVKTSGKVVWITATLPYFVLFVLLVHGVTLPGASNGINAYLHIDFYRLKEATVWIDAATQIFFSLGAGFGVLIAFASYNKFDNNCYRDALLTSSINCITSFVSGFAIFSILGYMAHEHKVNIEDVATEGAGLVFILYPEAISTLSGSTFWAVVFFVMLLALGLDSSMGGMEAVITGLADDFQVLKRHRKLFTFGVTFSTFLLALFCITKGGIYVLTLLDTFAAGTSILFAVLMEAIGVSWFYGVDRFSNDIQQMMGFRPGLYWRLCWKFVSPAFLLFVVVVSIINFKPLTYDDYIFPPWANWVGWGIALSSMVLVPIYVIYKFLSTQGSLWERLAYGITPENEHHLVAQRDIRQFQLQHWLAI
Description: as §1, §2, §3, §4

[1] = ratio of SERT Ki to NET Ki (binding)
[2] = ratio of binding Ki at SERT to Ki at NET, the tables list only compounds with a ratio in the range 0.1-100
[3] = the tables list only compounds with NET pKi≧8

T1 sequence (P31645 whole entry): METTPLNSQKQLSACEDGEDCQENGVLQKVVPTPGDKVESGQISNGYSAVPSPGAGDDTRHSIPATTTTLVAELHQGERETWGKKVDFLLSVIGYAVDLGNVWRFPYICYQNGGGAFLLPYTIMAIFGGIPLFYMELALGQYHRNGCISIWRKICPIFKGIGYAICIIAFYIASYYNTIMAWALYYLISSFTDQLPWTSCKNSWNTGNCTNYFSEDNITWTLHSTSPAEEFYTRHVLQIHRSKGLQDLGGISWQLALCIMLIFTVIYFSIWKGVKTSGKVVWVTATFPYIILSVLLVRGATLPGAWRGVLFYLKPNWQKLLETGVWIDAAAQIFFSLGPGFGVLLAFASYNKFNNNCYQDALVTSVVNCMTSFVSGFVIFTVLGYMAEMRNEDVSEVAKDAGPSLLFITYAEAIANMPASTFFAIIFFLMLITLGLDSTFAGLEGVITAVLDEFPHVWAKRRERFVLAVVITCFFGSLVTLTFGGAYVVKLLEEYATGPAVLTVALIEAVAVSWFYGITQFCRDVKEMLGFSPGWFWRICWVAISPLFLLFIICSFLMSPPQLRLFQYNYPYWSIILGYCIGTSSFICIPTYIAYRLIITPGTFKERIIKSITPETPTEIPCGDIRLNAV

SMILES | SERT Ki/NET Ki (hSERT; [1]) | Ki (hNET) [nM] | SERT Ki/NET Ki (hSERT; [2]) | Ki (hNET; [3]) [nM]
Cc1ccc(F)c(OC(c2cc(F)cc(F)c2)C2CCNC2)c1F (centres unmarked) [41-7] | 1.3 | 1 |  | 
Cc1ccc(Cl)c(OC(c2cc(F)cc(F)c2)C2CCNC2)c1F (centres unmarked) [41-8] | 7.9 | 0.398 |  | 
Cc1ccc(Cl)c(O[C@H](c2cc(F)cc(F)c2)[C@@H]2CCNC2)c1F [41-9] | 0.8 | 0.794 |  | 
Fc1cc(F)cc(C(Oc2c(Cl)ccc(Cl)c2Cl)C2CCNC2)c1 (centres unmarked) [41-11] | 0.8 | 0.398 |  | 
Cc1ccc(Cl)c(OC(c2cccc(C#N)c2)C2CCNC2)c1Cl (centres unmarked) [41-14] | 7.9 | 0.631 |  | 
Cc1ccc(Cl)c(OC(c2ccc(C#N)cc2)C2CCNC2)c1Cl (centres unmarked) [41-15] | 0.6 | 1 |  | 
Cc1ccc(Cl)c(O[C@H](c2cccc(CO)c2)[C@H]2CCNC2)c1Cl [41-17] | 5 | 1 |  | 
Cc1ccc(Cl)c(OC(c2ccccc2Cl)C2CCNC2)c1Cl (centres unmarked) [41-18] | 0.4 | 1.58 |  | 
Cc1ccc(Cl)c(OC(c2ccc(Cl)cc2)C2CCNC2)c1Cl (centres unmarked) [41-19] | 0.6 | 1.26 |  | 
Cc1ccc(Cl)c(OC(c2cc(F)cc(Cl)c2)C2CCNC2)c1Cl (centres unmarked) [41-24] | 1 | 1 |  | 
Cc1ccc(Cl)c(O[C@@H](c2cc(F)cc(F)c2)[C@H]2CCNC2)c1Cl [41-27] | 0.8 | 0.794 |  | 
Cc1ccc(F)c(OC(c2cc(F)cc(F)c2)C2CCNC2)c1Cl (centres unmarked) [41-28] | 6.3 | 0.316 |  | 
Cc1ccc(F)c(OC(c2cc(F)cc(F)c2)C2CCNC2)c1Cl (centres unmarked) [41-29] | 0.5 | 0.251 |  | 
Fc1cc(F)cc(C(Oc2c(F)ccc(F)c2Cl)C2CCNC2)c1 (centres unmarked) [41-30] | 32 | 0.2 |  | 
Fc1cc(F)cc([C@@H](Oc2c(F)ccc(F)c2Cl)[C@@H]2CCNC2)c1 [41-31] | 0.6 | 0.251 |  | 
N#Cc1cccc([C@H](Oc2c(F)ccc(F)c2Cl)[C@H]2CCNC2)c1 [41-32] | 40 | 0.398 |  | 

SMILES | SERT Ki/NET Ki (hSERT; [1]) | Ki (hNET) [nM] | SERT Ki/NET Ki (hSERT; [2]) | Ki (hNET; [3]) [nM]
N#Cc1cccc([C@@H](Oc2c(F)ccc(F)c2Cl)[C@@H]2CCNC2)c1 [41-33] | 0.4 | 0.794 |  | 
N#Cc1cccc([C@H](Oc2c(F)ccc(F)c2Cl)[C@@H]2CCNC2)c1 [41-34] | 0.8 | 7.94 |  | 
NC(=O)c1cccc(C(Oc2c(F)ccc(F)c2Cl)C2CCNC2)c1 (centres unmarked) [41-36] | 7.9 | 1 |  | 
Fc1cc(F)c(OC(c2ccccc2)C2CCNC2)cc1F (centres unmarked) [42-1] | 1.6 | 7.94 |  | 
Cc1cc(Cl)c(OC(c2ccccc2)C2CCNC2)cc1F (centres unmarked) [42-4] | 0.5 | 2.51 |  | 
COc1cc(Cl)c(F)cc1OC(c1ccccc1)C1CCNC1 (centres unmarked) [42-8] | 0.4 | 1.26 |  | 
Fc1cc(F)cc(C(Oc2cc(F)c(F)cc2F)C2CCNC2)c1 (centres unmarked) [43-1] | 32 | 2 |  | 
COc1cc(Cl)c(F)cc1OC(c1cc(F)cc(F)c1)C1CCNC1 (centres unmarked) [43-2] | 1.3 | 2 |  | 
CCc1cc(F)cc(F)c1O[C@@H](c1ccccc1)[C@H]1CCNC1 [44-4] |  |  | 0.3 | 0.631
CC(=O)c1cc(F)cc(F)c1O[C@@H](c1ccccc1)[C@H]1CCNC1 [44-6] |  |  | 13 | 1.58
Fc1cc(Cl)cc(F)c1OC(c1ccccc1)C1CCNC1 (centres unmarked) [44-8] |  |  | 0.1 | 3.98
Fc1cc(Cl)cc(F)c1O[C@@H](c1ccccc1)[C@H]1CCNC1 [44-9] |  |  | 0.1 | 2.51
Fc1cc(Cl)c(O[C@@H](c2ccccc2)[C@H]2CCNC2)c(Cl)c1 [44-21] |  |  | 0.5 | 6.31
COC(=O)c1cc(F)cc(F)c1O[C@@H](c1ccccc1)[C@H]1CCNC1 [44-28] |  |  | 2.5 | 1
Fc1cc(F)cc([C@H](Oc2c(F)cc(F)cc2F)[C@H]2CCNC2)c1 [45-1] |  |  | 7.9 | 3.98
